# Assay results as given in patent publication US20120101076A1, “CARBONATE DERIVATIVES FOR THE TREATMENT OF COUGH” (priority 2010, published 2012).
# How the values were obtained:
# [1] = system: guinea pigs (citric acid-induced cough); test: citric acid cough challenge in guinea pigs; format: in vivo, guinea pig; details: for percentage (%) of reduction of number of cough efforts / percentage (%) reduction of number of coughs: mean±SEM
# Protocol: Evaluation of the activities of Compound Ia and tiotropium bromide in an animal cough challenge model.
# Male Dunkin-Hartley guinea pigs (250-350 g, Charles-River, Italy) were acclimatized in cages, (24±0.5° C.) for 1 week after delivery, with free access to water and standard rodent diet. One group of guinea pigs was actively sensitized by an intra-peritoneal injection of ovalbumin (100 mg/kg) followed by a subcutaneous injection of ovalbumin (100 mg/kg). Controls received the vehicle alone (0.9% NaCl).
# After the period of acclimatization to laboratory conditions, animals were individually placed in a transparent perspex box (20×10×10 cm, Vetrotecnica, Italy) ventilated with a constant airflow of 400 ml/minute. A tussive agent (citric acid, 0.25 M) was nebulized via a mini-ultrasonic nebulizer (Ugo Basile, Italy). […] The numbers of elicited cough efforts were counted by a blind observer.
# All experiments were carried out at the same time of day, starting at 9.00 a.m. Guinea-pigs received Compound Ia (1 mM) or tiotropium bromide (0.3 mM) or their vehicle (distilled water) for 10 minutes by aerosol at least 3 hour before the citric acid challenge (0.25 M; for 10 minute; by aerosol), in order to elicit cough.
# Values are presented as mean±SEM. Comparisons among groups were made by one way analysis of variance (ANOVA) and the Student's t-test or the Bonferroni's test when appropriate. A p value of <0.05 was considered significant.
# [2] = system: adult nonsmokers with acute viral upper respiratory tract infection; details: once daily 18 μg by inhalation for 7 days; cited from earlier work
# [3] = system: ovalbumin-sensitized guinea-pigs; details: administered intratracheally; cited from earlier work
# postviral coughing = details: inhaled, relative to placebo; cited from earlier work
smiles,measurement,setting,value
C[N+]1(C)[C@@H]2C[C@@H](OC(=O)C(O)(c3cccs3)c3cccs3)C[C@H]1[C@@H]1O[C@@H]12 [tiotropium bromide],number of cough efforts induced by citric acid (statistical significance),"[1]; 0.3 mM by aerosol, 3 hours before, both animal groups",did not reach a statistical significance
same,percentage (%) of reduction of number of cough efforts,"[1]; control animals, 0.3 mM by aerosol, 3 hours before citric acid 0.25 M",20.2±9.9%
same,percentage (%) of reduction of number of cough efforts,"[1]; ovalbumin-sensitized animals, 0.3 mM by aerosol, 3 hours before citric acid 0.25 M",28.1±11%
same,cough reflex sensitivity to inhaled capsaicin,[2],capable of inhibiting cough reflex sensitivity
same,cough elicited by inhalation of citric acid,[3],able to reduce cough
O=C(OC(c1cccc(F)c1)c1cccc(F)c1)O[C@H]1C[N+]2(CC(=O)c3cccs3)CCC1CC2.[Cl-] [Compound Ia],number of cough efforts induced by citric acid (statistical significance),"[1]; 1 mM by aerosol, 3 hours before citric acid 0.25 M",significantly reduced
same,percentage (%) reduction of number of coughs,"[1]; control, non-sensitized animals, 1 mM by aerosol, 3 hours before citric acid 0.25 M",17.4±6.4%
same,percentage (%) reduction of number of coughs,"[1]; ovalbumin-sensitized animals, 1 mM by aerosol, 3 hours before citric acid 0.25 M",37.2±5.9%
CC(C)[N+]1(C)[C@@H]2CC[C@H]1C[C@@H](OC(=O)C(CO)c1ccccc1)C2 (stereo partly drawn) [ipratropium bromide],suppression of subjectively described postviral coughing,postviral coughing,effective
